Reference: article PMC9014412 (Journal of medicinal chemistry, 2022)
Like-named read-outs stand apart in the source and are kept apart here.

Key:
[1] = target: T1, HDAC1-CoREST-LSD1 complex (Homo sapiens, UniProt Q13547); assay: Fluorescent HDAC assay with purified HDAC1-CoREST-LSD1 complex; type: biochemical; conditions: Boc-(Ac)Lys-AMC substrate
T1 construct: made in house
Description: (§1) 2. In Vitro HDAC Assay with Class I HDAC Complexes
(§2) Histone Deacetylase Assay. Inhibition experiments against HDAC1-CoREST-LSD1, HDAC2-CoREST-LSD1 and HDAC3-SMRT-DAD were conducted using a fluorescent HDAC assay. The assays were carried out utilising a black 96-well plates (Corning) with a reaction volume of 50 µL. HDAC complexes were expressed and purified as described previously.1,2 100 µM of Boc- (Ac)Lys-AMC was used as a substrate in each well. All determinations were performed in triplicate. The inhibitors/PROTACs were dissolved at 50 mM in DMSO, and then further diluted with 10% DMSO HDAC assay buffer (10% DMSO, 50 mM Tris pH 7.5, 50 mM NaCl, 0.1 mg/mL BSA) to micromolar concentrations. 1:3 serial dilutions were then carried out using 10% DMSO HDAC assay buffer to afford range of concentrations. 10 µL of each of these solutions were […]
(§3) assay buffer (50 mM Tris pH 7.5, 50 mM NaCl, 0.1 mg/mL BSA). The plate was then incubated at 20 °C, 100 RPM for 1 hour. After incubation, 10 µL of the Boc-(Ac)Lys-AMC substrate, dissolved in HDAC assay buffer, was added to each well. […] Fluorescence intensity was determined […]
(§4) IC 50 values were calculated through the GraphPad Prism 7 software by non-linear regression, log (inhibitor) vs. response – variable slope […]

[2] = target: T2, HDAC2-CoREST-LSD1 complex (Homo sapiens, UniProt Q92769); assay: Fluorescent HDAC assay with purified HDAC2-CoREST-LSD1 complex; type: biochemical; conditions: Boc-(Ac)Lys-AMC substrate
T2 construct: made in house
Description: as §1, §2, §3, §4

[3] = target: T3, HDAC3-SMRT complex (Homo sapiens, UniProt O15379); assay: Fluorescent HDAC assay with purified HDAC3-SMRT complex; type: biochemical; conditions: Boc-(Ac)Lys-AMC substrate
T3 construct: made in house
Description: as §1, §2, §3, §4

[4] = test system: HCT116 cells; assay: CellTiter-Glo 2.0 cell viability assay; type: cell-based, human
Description: CellTiter-Glo 2.0 Reagent (Promega UK Ltd, G9242) was equilibrated to room temperature and added to the wells in a ratio of 1 volume reagent:5 volumes medium. Background luminescence was determined using medium alone plus reagent. The plates were shaken on an orbital shaker for 2 min to induce cell lysis and then incubated in the dark at room temperature for 10 min to stabilize the luminescent signal. Luminescence was captured on a CLARIOstar plate reader (BMG Labtech Ltd, UK) at 22 °C to give relative luminescence units and analyzed using BMG Labtech software. EC50 values were calculated by nonlinear regression (Hill plot) and log (inhibitor) versus response—variable slopes (four parameters) using GraphPad Prism 9 software. Each compound dose response was repeated as four independent biological replicates (n = 4).

[5] = test system: HCT116 cells; assay: RNA-seq differential gene expression; type: cell-based, human; conditions: 10 μM, 24 h
Description: RNA-seq analysis was performed in HCT116 cells treated with PROTACs (JPS004, JPS014, JPS016, JPS035, and JPS036) for 24 h at 10 μM concentration. Total RNA was isolated using a Tri-reagent RNA miniprep kit (Zymogen; R2053), before RNA integrity, size, and purity were assessed using an Agilent Bioanalyzer. Library preparation and sequencing were performed by Novogene, using a NovaSeq 6000 PE150 platform at a read depth of 20 million. For bioinformatics analysis, see the Supporting Information. RNA-seq data from the study was deposited at the GEO database (GSE197985).
3. Apoptosis Flow Cytometry Assay
Figure S9. Apoptosis flow cytometry assay with 2.5 µM and 10 µM treatments of JPS016 and JPS016NC at 24 and 48 hours. Error bars represent the average of three independent biological replicates.
µM µM µM 5 µM µM µM µM µM µM µM
4. RNA Seq – Bioinformatics Analysis
Paired-end reads were aligned using HISAT2 (v2.2.1) and mapped to the HISAT2 GRCh38_tran index build.3 Quality control was performed on raw and aligned data using FASTQC (v0.11.9) and summarised using MultiQC (v1.11).4,5 The resulting SAM files were subsequently sorted and converted to the BAM format before indexing with SAMtools (v 1.12).6 Reads were then counted across the exons of each gene and gene loci annotated using command-line program LiBiNorm (v2.4); run in HT-Seq compatibility mode (-z) and provided with the ‘Homosapiens.GRCh38.104’ GTF file obtained from Ensembl. LiBiNorm was run using the following parameters: LiBiNorm count -z -r pos -i gene_name -s reverse <BAM file> Homo_sapiens.GRCh38.104.gtf <OUTPUT file>.7 Default normalisation of expression values and differential gene analysis was then carried out using the R package DESeq2.8 Significance thresholds were set as a p-adjusted value < 0.01 and a fold change > 2 (log2 fold change > 1) and implemented for down-stream analysis, with all plots produced in R. Gene ontology (GO) analysis was carried out using the Bioconductor package topGO using the human genome-wide annotation package to map gene identifiers to the relevant org.Hs.eg.db […]

[6] = test system: H3K56ac; assay: Histone H3 Lys 56 acetylation (H3K56ac) western blotting; type: cell-based, human; conditions: HCT116 cells, 24 h, screen at 0.1, 1, 10 μM; relative to DMSO, CI-994 and 1 at 10 μM
Description: (§5) Supporting Information: Biology
(§6) Representative blots of two independent biological replicates.

[7] = target: HDAC1 (Homo sapiens, UniProt Q13547); assay: HDAC1 degradation by quantitative western blotting in HCT116 cells
Description: (§11) Initially, each PROTAC was tested at 0.1, 1, and 10 μM in HCT116 cells for 24 h; then, cell extracts were prepared and evaluated for HDAC1/2 and 3 degradation by quantitative western blotting.
(§12) This cell line was incubated at 37 °C with 5% CO2.
(§13) HCT116 cells were seeded into 6-well plates (4 × 10^5 cells/well for 24 h, 2 × 10^5 cells/well for 48 h) for 24 h and then treated with DMSO or compounds at the indicated concentrations in fresh medium (5 mL total). After desired treatment time, the cells were harvested and then lysed in lysis buffer (50 mM Tris-HCl, 150 mM NaCl, 0.5% NP-40, 0.5% Triton X-100) supplemented with a protease inhibitor (Sigma, P8340). The suspension was incubated on ice for 30 min and centrifuged (18,000 rcf, 15 min, 4 °C); then, the supernatant was collected, and protein concentrations were quantified via Bradford Assay using Protein Assay Dye Reagent Concentrate (BIO-RAD). […] PageRuler Plus Prestained Ladder was used for size standards. After gel electrophoresis at 140 V for 90 min, the separated proteins were transferred onto a nitrocellulose membrane at 30 V for 60 min. The membranes were probed with primary antibodies (see the Supporting Information) for 60−90 min. Blots were developed with complimentary IRDye-conjugated secondary antibodies, and the bands were visualized using an Odyssey infrared imaging system. Image processing and band intensity quantification were performed using Image Studio Lite.

[8] = target: HDAC2 (Homo sapiens, UniProt Q92769); assay: HDAC2 degradation by quantitative western blotting in HCT116 cells; design: Dmax: dose or concentration left out as unconfirmed; conditions: for HDAC2 degradation in initial screen (in words): HCT116 cells, 24 h, 0.1, 1 and 10 μM, compared with 1 at 10 μM
Description: as §11, §12, §13

[9] = target: HDAC3 (Homo sapiens, UniProt O15379); assay: HDAC3 degradation by quantitative western blotting in HCT116 cells
Description: as §11, §12, §13

[10] = test system: LSD1; assay: LSD1 protein levels by western blotting; type: cell-based, human; conditions: HCT116 cells, after 48 h
Description: as §5, §6
(§7) Figure S6. Representative Western blot of HDAC1/2/3 levels after 24 hours and 48 hours with 1
(§8) (JPS004), 7 (JPS014) and 9 (JPS016), and bar graph representation of HDAC1-3, LSD1 and Sin3a
(§9) protein levels after 24 hours and 48 hours as the average of three independent biological replicates.
(§10) (also on this page, place not known: HDAC1 24hHDAC2 24hHDAC3 24hHDAC1 48hHDAC2 48hHDAC3 %Protein Levels Remaining (Relative to DMSO) %Protein Levels Remaining (Relative to DMSO))

[11] = test system: SIN3A; assay: SIN3A protein levels by western blotting; type: cell-based, human; conditions: HCT116 cells, 10 μM, after 24 h
Description: as §5, §6, §7, §8, §9, §10

[12] = test system: HCT116 cells; assay: Apoptosis flow cytometry assay (sub-G1 population); type: cell-based, human; conditions: 10 μM
Description: HCT116 cells were seeded (5 × 10^5 cells/plate) into 6 cm tissue culture plates for 24 h and then treated with 10 μM compounds (with 0.1% DMSO vehicle) or 0.1% DMSO control in fresh medium (5 mL total). The cells were then exposed to the compounds (10 μM) for 24 or 48 h. To harvest the cells, the medium was transferred from each sample plate to 15 mL centrifuge tubes. Each well was washed with 1 mL of phosphate-buffered saline (PBS) and the PBS was transferred to the corresponding 15 mL centrifuge tube. The plates were trypsinized, 2 mL of medium was added, and the cells and medium were transferred to the corresponding 15 mL centrifuge tubes. The harvested cells were pelleted by centrifugation (200g, 5 min, 4 °C), washed with 1 mL PBS, and then pelleted again by centrifugation (200g, 5 min, 4 °C). The supernatant was discarded, and the pellets resuspended in 1 mL of 70% ethanol (ice-cold) to fix the cells. Samples were stored at 4 °C and analyzed within two weeks. PBS (1 mL) was added to each sample tube containing cells fixed in 70% ethanol. The cells were pelleted by centrifugation (200g, 5 min, 4 °C), and the PBS wash was repeated. The supernatant was discarded, and the pellet was resuspended in 50 μL of RNase A (1 μg/mL, Thermo Scientific, EN0531) and left at room temperature for 10 min to digest contaminating RNA. A total of 500 μL of PI stain (50 μg/mL, Invitrogen, P3566) was added to each tube, and the tubes were incubated in the dark, at room temperature, for 30 min. Results were acquired on a BD FACSCanto II flow cytometer and analyzed using BD FACSdiva software. Sub-G1 population was calculated as a percentage of total cell population. Two independent biological replicates were performed.

[13] = p-adjusted < 0.01, log2 fold change > 1

Sequence of HDAC2 (Q92769 whole entry): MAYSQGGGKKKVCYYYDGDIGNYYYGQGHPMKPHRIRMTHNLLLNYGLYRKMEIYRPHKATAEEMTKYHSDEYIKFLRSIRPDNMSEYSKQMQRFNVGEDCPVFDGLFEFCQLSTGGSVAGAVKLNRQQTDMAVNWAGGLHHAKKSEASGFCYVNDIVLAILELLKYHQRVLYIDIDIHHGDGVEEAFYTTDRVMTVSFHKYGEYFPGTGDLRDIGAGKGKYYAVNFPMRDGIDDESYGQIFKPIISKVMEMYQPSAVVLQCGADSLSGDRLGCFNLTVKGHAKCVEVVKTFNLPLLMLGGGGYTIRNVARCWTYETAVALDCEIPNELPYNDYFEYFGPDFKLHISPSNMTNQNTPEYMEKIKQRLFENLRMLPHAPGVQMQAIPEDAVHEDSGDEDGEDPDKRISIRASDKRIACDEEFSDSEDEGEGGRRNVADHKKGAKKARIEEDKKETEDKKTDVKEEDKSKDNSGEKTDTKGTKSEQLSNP
Sequence of HDAC1 (Q13547 whole entry): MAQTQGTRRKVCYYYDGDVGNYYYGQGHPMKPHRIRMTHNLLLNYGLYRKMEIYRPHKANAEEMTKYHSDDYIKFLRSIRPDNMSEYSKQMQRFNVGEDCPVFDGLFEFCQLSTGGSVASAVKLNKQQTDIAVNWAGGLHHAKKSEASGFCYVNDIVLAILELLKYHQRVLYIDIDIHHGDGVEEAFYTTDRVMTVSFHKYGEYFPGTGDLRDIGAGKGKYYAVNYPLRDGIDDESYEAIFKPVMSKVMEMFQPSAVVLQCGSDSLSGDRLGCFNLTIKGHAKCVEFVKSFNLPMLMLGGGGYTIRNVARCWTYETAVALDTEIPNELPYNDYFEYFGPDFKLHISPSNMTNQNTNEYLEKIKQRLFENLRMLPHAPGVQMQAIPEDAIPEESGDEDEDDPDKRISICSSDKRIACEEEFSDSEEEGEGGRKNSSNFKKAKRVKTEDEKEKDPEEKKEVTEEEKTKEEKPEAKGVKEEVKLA
Sequence of HDAC3 (O15379 whole entry): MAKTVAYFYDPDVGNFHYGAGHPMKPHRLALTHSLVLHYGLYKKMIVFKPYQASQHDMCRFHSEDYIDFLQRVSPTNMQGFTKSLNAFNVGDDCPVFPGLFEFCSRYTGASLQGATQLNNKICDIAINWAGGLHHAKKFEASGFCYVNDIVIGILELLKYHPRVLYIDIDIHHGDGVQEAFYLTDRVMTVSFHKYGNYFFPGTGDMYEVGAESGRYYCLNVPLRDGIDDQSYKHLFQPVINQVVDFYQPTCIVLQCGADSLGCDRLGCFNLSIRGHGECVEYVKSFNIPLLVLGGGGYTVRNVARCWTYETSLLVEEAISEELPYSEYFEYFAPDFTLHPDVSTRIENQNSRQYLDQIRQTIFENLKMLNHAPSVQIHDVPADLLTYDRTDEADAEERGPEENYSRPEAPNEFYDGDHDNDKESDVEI
Sequence of HDAC3 (Q9Y618 389-480 partner limits assumed): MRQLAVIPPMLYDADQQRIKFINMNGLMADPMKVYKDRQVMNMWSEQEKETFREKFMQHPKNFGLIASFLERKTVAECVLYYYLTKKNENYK
T1 sequence (Q13547 whole entry, other chains not shown): as the sequence (Q13547 whole entry) above
T1 sequence (Q9UKL0 86-485 partner limits assumed, other chains not shown): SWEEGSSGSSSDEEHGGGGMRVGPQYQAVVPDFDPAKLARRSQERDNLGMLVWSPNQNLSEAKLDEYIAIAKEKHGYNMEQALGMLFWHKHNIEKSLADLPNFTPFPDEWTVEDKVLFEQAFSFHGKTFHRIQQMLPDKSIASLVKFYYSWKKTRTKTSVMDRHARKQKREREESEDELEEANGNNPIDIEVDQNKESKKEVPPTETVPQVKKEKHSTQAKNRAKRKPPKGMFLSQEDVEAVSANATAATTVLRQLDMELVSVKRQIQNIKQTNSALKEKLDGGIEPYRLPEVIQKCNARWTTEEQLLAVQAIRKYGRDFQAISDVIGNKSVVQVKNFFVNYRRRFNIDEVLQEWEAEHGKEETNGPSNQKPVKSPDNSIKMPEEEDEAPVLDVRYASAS
T3 sequence (O15379 whole entry): as the sequence (O15379 whole entry) above
T3 sequence (Q9Y618 389-480 partner limits assumed): as the sequence (Q9Y618 389-480 partner limits assumed) above
T2 sequence (Q92769 whole entry, other chains not shown): as the sequence (Q92769 whole entry) above
T2 sequence (Q9UKL0 86-485 partner limits assumed, other chains not shown): as the sequence (Q9UKL0 86-485 partner limits assumed, other chains not shown) above

IC50 [1]	IC50 [2]	IC50 [3]	Dmax ([7]; HCT-116, read-out: Dmax HDAC1)	Dmax ([8]; HCT-116, read-out: Dmax HDAC2)	Dmax ([9]; HCT-116, read-out: Dmax HDAC3)	EC50 ([4]; Homo sapiens, HCT-116, 48 h, 48 h)	Dmax ([8]; HCT-116, read-out: Dmax HDAC2 in time course)	SMILES	Effect on cell viability (in words) ([4]; CellTiter-Glo and flow cytometry)	Fold less DEGs ([5]; compared with the more potent degraders)	H3K56ac levels (in words) [6]	HDAC1 degradation in initial screen (in words) ([7]; HCT116 cells, 24 h, 0.1, 1 and 10 μM, compared with 1 at 10 μM)	HDAC2 degradation in initial screen (in words) [8]	HDAC3 dose-response behaviour (hook effect) ([9]; HCT116 cells, 24 h, 0.01-10 μM)	Number of downregulated DEGs [5, 13]	Number of upregulated DEGs [5, 13]	LSD1 levels [10]	SIN3A levels (abundance) [11]	Percentage of cells in sub-G1 phase (in words) ([12]; after 24 h)	Percentage of cells in sub-G1 phase (in words) ([12]; after 48 h)
1.81 ± 0.54 µM	3.46 ± 0.78 µM	3.81 ± 0.79 µM	68%	49%	76%			CC(=O)N[C@H](C(=O)N1C[C@H](O)C[C@H]1C(=O)NCc1ccc(-c2scnc2C)cc1OCCCCCCCCCCCC(=O)Nc1ccc(C(=O)Nc2ccccc2N)cc1)C(C)(C)C [Compound 21, (2S,4R)-1-((S)-2-Acetamido-3,3-dimethylbutanoyl)-N-(2-((12-((4-((2-aminophenyl)carbamoyl)phenyl)amino)-12-oxododecyl)oxy)-4-(4-methylthiazol-5-yl)benzyl)-4-hydroxypyrrolidine-2-carboxamide]	little effects on cell viability	approximately 10 fold	increased H3K56ac levels significantly but not to the same levels as 1	comparable HDAC1 and HDAC2 degradation to 1	comparable HDAC1 and HDAC2 degradation to 1	exhibit a standard dose response curve for HDAC3						
				45%		5.2 ± 0.6 µM	51%	Cc1ncsc1-c1ccc(CNC(=O)[C@@H]2C[C@@H](O)CN2C(=O)[C@@H](NC(=O)COCCCCCCCCCOCC(=O)Nc2ccc(C(=O)Nc3ccccc3N)cc2)C(C)(C)C)cc1 [Compound 9, (2S,4R)-1-((S)-2-(2-((9-(2-((4-((2-Aminophenyl)carbamoyl)-phenyl)amino)-2-oxoethoxy)nonyl)oxy)acetamido)-3,3-dimethylbutanoyl)-4-hydroxy-N-(4-(4-methylthiazol-5-yl)benzyl)-pyrrolidine-2-carboxamide]			increased H3K56ac levels to the same levels as CI-994		marginally increased compared to 1 at 10 μM		1477	2464	approximately 40 % of controls	60 % abundance	highest percentage of cells in the sub-G1 phase	highest percentage of cells in the sub-G1 phase
